Patent US12281122B1, “PI3K inhibitors” (Cogent Biosciences, Inc., priority 2023, dated 2025)

How the values were obtained:
[1] = system: T47D (PI3Kα-H1047R) cell line; assay: HTRF phospho-AKT(S473) cell assay in T47D cells; assay type: cell-based, human; details: Homo sapiens, 2 hours compound incubation
Method in brief: (§1)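 T47D (PI3Kα-H1047R; RPMI, 10% FBS, insulin) and SKBR3 (wild-type PI3Kα; McCoy's 5A, 10% FBS) cells treated 2 h at 37 °C with 12-point 1:3 dilutions, top 5 μM and 10 μM respectively, ≤0.5% DMSO. SKBR3 stimulated with 70 ng/ml PDGF-BB for the last 15 min; lysate pAKT(S473) by HTRF, IC50 from curves.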

[2] = system: SKBR3 (PI3Kα-Wild Type) cell line; assay: HTRF phospho-AKT(S473) cell assay in SKBR3 cells; assay type: cell-based, human; details: Homo sapiens, SK-BR-3, 2 hours compound incubation, PDGF-BB stimulated
Method in brief: as §1

[3] = T47D (PI3Kα-H1047R) cells, HTRF phospho-AKT(S473)
[4] = SKBR3 (PI3Kα-Wild Type) cells, HTRF phospho-AKT(S473)
[5] = HTRF phospho-AKT(S473), T47D (PI3Kα-H1047R) cells
[6] = HTRF phospho-AKT(S473), SKBR3 (PI3Kα-Wild Type) cells

IC50 [1, 3] [nM]	IC50 [2, 4] [nM]	IC50 [1, 5] [nM]	IC50 [2, 6] [nM]	Compound	further results
< 250	1000 to 5000	–	–	Cc1cc([C@@H](C)Nc2ccc(Cl)nc2C(=O)NS(C)(=O)=O)c2nc([C@@H]3CCCN(c4cccnc4)C3)n(C)c(=O)c2c1 (relative stereo) [Compound 211, 6-chloro-3-(((R)-1-(3,6-dimethyl-4-oxo-2-((R*)-1-(pyridin-3-yl)piperidin-3-yl)-3,4-dihydroquinazolin-8-yl)ethyl)amino)-N-(methylsulfonyl) picolinamide]	–
< 250	1000 to 5000	–	–	Cc1cc([C@@H](C)Nc2ccc(Cl)nc2C(=O)NS(C)(=O)=O)c2nc(N3CCC(c4ccn[nH]4)CC3)n(C)c(=O)c2c1 [Compound 165, (R)-3-((1-(2-(4-(1H-pyrazol-5-yl)piperidin-1-yl)-3,6-dimethyl-4-oxo-3,4-dihydroquinazolin-8-yl)ethyl)amino)-6-chloro-N-(methylsulfonyl) picolinamide]	–
250 to 500	≥ 5000	–	–	Cc1cc([C@@H](C)Nc2ccc(Cl)nc2C(=O)NS(C)(=O)=O)c2nc(N3C[C@@H]4C[C@H](c5cc[nH]n5)[C@H]3C4)n(C)c(=O)c2c1 (relative stereo) [Compound 347, 3-(((R)-1-(2-((1R,4R,6R*)-6-(1H-pyrazol-3-yl)-2-azabicyclo[2.2.1]heptan-2-yl)-3,6-dimethyl-4-oxo-3,4-dihydroquinazolin-8-yl)ethyl)amino)-6-chloro-N-(methylsulfonyl) picolinamide]	–
< 250	1000 to 5000	–	–	Cc1cc([C@@H](C)Nc2ccc(Cl)nc2C(=O)NS(C)(=O)=O)c2nc(N3CCC(c4c(C)n[nH]c4C)CC3)n(C)c(=O)c2c1 [Compound 232, (R)-6-chloro-3-((1-(2-(4-(3,5-dimethyl-1H-pyrazol-4-yl)piperidin-1-yl)-3,6-dimethyl-4-oxo-3,4-dihydroquinazolin-8-yl)ethyl)amino)-N-(methylsulfonyl) picolinamide]	–
< 250	1000 to 5000	–	–	Cc1cc([C@@H](C)Nc2ccc(Cl)nc2C(=O)NS(C)(=O)=O)c2nc(N3CCN(c4ccccn4)CC3)n(C)c(=O)c2c1 [Compound 182, (R)-6-chloro-3-((1-(3,6-dimethyl-4-oxo-2-(4-(pyridin-2-yl)piperazin-1-yl)-3,4-dihydroquinazolin-8-yl)ethyl)amino)-N-(methylsulfonyl) picolinamide]	–
–	–	< 250	1000 to 5000	[2H]C([2H])([2H])n1ccc([C@H]2[C@@H]3CN(c4nc5c([C@@H](C)Nc6ccc(Cl)nc6C(=O)NS(C)(=O)=O)cc(C)cc5c(=O)n4CC)C[C@@H]32)n1 [Compound 731, 6-chloro-3-(((R)-1-(3-ethyl-6-methyl-2-((1R,5S,6R)-6-(1-(methyl-d3)-1H-pyrazol-3-yl)-3-azabicyclo[3.1.0]hexan-3-yl)-4-oxo-3,4-dihydroquinazolin-8-yl)ethyl)amino)-N-(methylsulfonyl) picolinamide]	–
< 250	1000 to 5000	–	–	Cc1cc([C@@H](C)Nc2ccc(Cl)nc2C(=O)NS(C)(=O)=O)c2nc(N3C[C@@H]4[C@H](C3)[C@H]4n3ccc(C)n3)n(C)c(=O)c2c1 [Compound 416, 6-chloro-3-(((R)-1-(3,6-dimethyl-2-((1R,5S,6S)-6-(3-methyl-1H-pyrazol-1-yl)-3-azabicyclo[3.1.0]hexan-3-yl)-4-oxo-3,4-dihydroquinazolin-8-yl)ethyl)amino)-N-(methylsulfonyl) picolinamide]	–
–	–	1000 to 5000	≥ 5000	Cc1cc([C@@H](C)Nc2ccc(Cl)nc2C(=O)NS(C)(=O)=O)c2nc([C@H]3[C@@H]4CN(c5ncc(Cl)cn5)C[C@@H]43)n(C)c(=O)c2c1 [Compound 825, 6-chloro-3-(((R)-1-(2-((1R,5S,6r)-3-(5-chloropyrimidin-2-yl)-3-azabicyclo[3.1.0]hexan-6-yl)-3,6-dimethyl-4-oxo-3,4-dihydroquinazolin-8-yl)ethyl)amino)-N-(methylsulfonyl) picolinamide]	–
< 250	1000 to 5000	–	–	Cc1cc([C@@H](C)Nc2ccc(Cl)nc2C(=O)NS(C)(=O)=O)c2nc(N3C[C@@H]4C[C@H]3CN4c3ccn(C)n3)n(C)c(=O)c2c1 [Compound 228, 6-chloro-3-(((R)-1-(3,6-dimethyl-2-((1S,4S)-5-(1-methyl-1H-pyrazol-3-yl)-2,5-diazabicyclo[2.2.1]heptan-2-yl)-4-oxo-3,4-dihydroquinazolin-8-yl)ethyl)amino)-N-(methylsulfonyl) picolinamide]	–
< 250	1000 to 5000	–	–	Cc1cc([C@@H](C)Nc2ccc(Cl)nc2C(=O)NS(C)(=O)=O)c2nc(N3C[C@@H]4[C@H](C3)[C@H]4c3ccnc(C)c3)n(C)c(=O)c2c1 [Compound 384, 6-chloro-3-(((R)-1-(3,6-dimethyl-2-((1R,5S,6S)-6-(2-methylpyridin-4-yl)-3-azabicyclo[3.1.0]hexan-3-yl)-4-oxo-3,4-dihydroquinazolin-8-yl)ethyl)amino)-N-(methylsulfonyl) picolinamide]	–
< 250	1000 to 5000	–	–	Cc1cc([C@@H](C)Nc2ccc(Cl)nc2C(=O)NS(C)(=O)=O)c2nc([C@@H]3CCCN(c4ccccn4)C3)n(C)c(=O)c2c1 (relative stereo) [Compound 212, 6-chloro-3-(((R)-1-(3,6-dimethyl-4-oxo-2-((R*)-1-(pyridin-2-yl)piperidin-3-yl)-3,4-dihydroquinazolin-8-yl)ethyl)amino)-N-(methylsulfonyl) picolinamide]	–
–	–	1000 to 5000	≥ 5000	Cc1cc([C@@H](C)Nc2ccc(Cl)nc2C(=O)NS(C)(=O)=O)c2nc(N3CC[C@H](c4cnc(C)c(C#N)c4)C3)n(C)c(=O)c2c1 (single isomer, unassigned) [Compound 655, 6-chloro-3-(((R)-1-(2-((R*)-3-(5-cyano-6-methylpyridin-3-yl)pyrrolidin-1-yl)-3,6-dimethyl-4-oxo-3,4-dihydroquinazolin-8-yl)ethyl)amino)-N-(methylsulfonyl) picolinamide]	–
–	–	500 to 1000	≥ 5000	Cc1cc([C@@H](C)Nc2ccc(Cl)nc2C(=O)NS(C)(=O)=O)c2nc(N3CCC[C@@H](c4cnc(C)c(C#N)c4)C3)n(C)c(=O)c2c1 (relative stereo) [Compound 614, 6-chloro-3-(((R)-1-(2-((R*)-3-(5-cyano-6-methylpyridin-3-yl)piperidin-1-yl)-3,6-dimethyl-4-oxo-3,4-dihydroquinazolin-8-yl)ethyl)amino)-N-(methylsulfonyl) picolinamide]	–
–	–	250 to 500	≥ 5000	Cc1cc([C@@H](C)Nc2ccc(Cl)nc2C(=O)NS(C)(=O)=O)c2nc(N3CCC(c4ncn(CC(F)(F)F)n4)CC3)n(C)c(=O)c2c1 [Compound 469, (R)-6-chloro-3-((1-(3,6-dimethyl-4-oxo-2-(4-(1-(2,2,2-trifluoroethyl)-1H-1,2,4-triazol-3-yl)piperidin-1-yl)-3,4-dihydroquinazolin-8-yl)ethyl)amino)-N-(methylsulfonyl) picolinamide]	–
< 250	1000 to 5000	–	–	COc1cnn(C2CCN(c3nc4c([C@@H](C)Nc5ccc(Cl)nc5C(=O)NS(C)(=O)=O)cc(C)cc4c(=O)n3C)CC2)c1 [Compound 311, (R)-6-chloro-3-((1-(2-(4-(4-methoxy-1H-pyrazol-1-yl)piperidin-1-yl)-3,6-dimethyl-4-oxo-3,4-dihydroquinazolin-8-yl)ethyl)amino)-N-(methylsulfonyl) picolinamide]	–
–	–	250 to 500	≥ 5000	Cc1cc([C@@H](C)Nc2ccc(Cl)nc2C(=O)NS(C)(=O)=O)c2nc(N3CCN(c4ncccc4F)CC3)n(C)c(=O)c2c1 [Compound 662, (R)-6-chloro-3-((1-(2-(4-(3-fluoropyridin-2-yl)piperazin-1-yl)-3,6-dimethyl-4-oxo-3,4-dihydroquinazolin-8-yl)ethyl)amino)-N-(methylsulfonyl) picolinamide]	–
–	–	< 250	1000 to 5000	Cc1cc([C@@H](C)Nc2ccc(Cl)nc2C(=O)NS(C)(=O)=O)c2nc(N3C[C@@H]4[C@H](C3)[C@H]4c3cnc(C)o3)n(C)c(=O)c2c1 [Compound 518, 6-chloro-3-(((R)-1-(3,6-dimethyl-2-((1R,5S,6R)-6-(2-methyloxazol-5-yl)-3-azabicyclo[3.1.0]hexan-3-yl)-4-oxo-3,4-dihydroquinazolin-8-yl)ethyl)amino)-N-(methylsulfonyl) picolinamide]	–
–	–	–	–	Cc1cc([C@@H](C)Nc2ccc(Cl)nc2C(=O)NS(C)(=O)=O)c2nc([C@H]3[C@@H]4CN(c5ccnc(C)n5)C[C@@H]43)n(C)c(=O)c2c1 [Compound 853, 6-chloro-3-(((R)-1-(3,6-dimethyl-2-((1R,5S,6r)-3-(2-methylpyrimidin-4-yl)-3-azabicyclo[3.1.0]hexan-6-yl)-4-oxo-3,4-dihydroquinazolin-8-yl)ethyl)amino)-N-(methylsulfonyl) picolinamide]	IC50 ([1]; T47D (PI3Kα-H1047R) cell line, phospho-AKT(S473) HTRF): 250 to 500 nM; IC50 ([2]; SKBR3 (PI3Kα-Wild Type) cell line, phospho-AKT(S473) HTRF): ≥ 5000 nM

Compound	IC50 [1, 3] [nM]	IC50 [2, 4] [nM]	IC50 [1, 5] [nM]	IC50 [2, 6] [nM]	further results
Cc1cc([C@@H](C)Nc2ccc(Cl)nc2C(=O)NS(C)(=O)=O)c2nc(N3C4CCC3CN(c3cnn(C)c3)C4)n(C)c(=O)c2c1 [Compound 269, 6-chloro-3-(((1R)-1-(3,6-dimethyl-2-(3-(1-methyl-1H-pyrazol-4-yl)-3,8-diazabicyclo[3.2.1]octan-8-yl)-4-oxo-3,4-dihydroquinazolin-8-yl)ethyl)amino)-N-(methylsulfonyl) picolinamide]	< 250	1000 to 5000	–	–	–
